The source of these data is US5643784A, “Indan derivatives” (H, Lundbeck A/S, priority 1990, dated 1997).

One assay has as its target T1, 5-HT2 receptors (Rattus norvegicus, UniProt P14842).
T1 construct: cortical tissue is dissected and weighed; from tissue; host or cells: cortex of male Wistar rats, crude membranes
Put plainly: Inhibition of 3H-ketanserin binding to 5-HT2 receptors in rat cortex in vitro. The settings on record: for IC50: 3H-Ketanserin 0.5 nM, rat cortex, 37° C., 30 min, read-out: Receptor Binding, IC50 5-HT2 3H-Ket. As for the experimental part:
Method in Hyttel, Pharmacology & Toxicology, 61, 126-129, 1987.
Male Wistar (Mol:Wist) rats (125-250 g) are sacrificed and cortical tissue is dissected and weighed. The tissue is homogenized (Ultra Turrax, 10 sec.) in 10 ml of ice-cold 50 mM tris buffer pH 7.7 (at 25° C.). The centrifuge glassware used in this step has been rinsed by sonication for 10 min. in ethanol. The homogenate is centrifuged twice at 20,000 g for 10 min. at 4° C. with rehomogenization of the pellet in 10 ml ice-cold buffer. The final pellet is homogenized in 500 vol (w/v) ice-cold buffer.
Incubation tubes kept on ice in triplicate receive 100 μl of drug solution in water (or water for total binding) and 2000 μl of tissue suspension (final tissue content corresponds to 4 mg original tissue). […] After incubation for 30 min. the samples are filtered under vacuum (0-50 mBar) through Whatman GF/F filters (25 mm). The tubes are rinsed with 5 ml ice-cold buffer which are then poured on the filters. Thereafter, the filters are washed with 2×5 ml of buffer. The filters are placed in counting vials and 4 ml of appropriate scintillation fluid (e.g. Picofluor™15) are added. After shaking for 1 h and storage 2 hrs in the dark the content of radioactivity is determined by liquid scintillation counting. Specific binding is obtained by subtracting the nonspecific binding in the presence of 1 μM mianserin.
(§1) For determination of the inhibition of binding five concentrations of drugs covering 3 decades are used.
The IC50 value is determined as the concentration at which the binding is 50% of the total binding in control samples minus the nonspecific binding in the presence of 1 μM mianserin.

Another assay addresses T2, dopamine D-2 receptors (Rattus norvegicus, UniProt P61169).
T2 construct: striatal tissue is dissected and weighed; from tissue; host or cells: corpus striatum of male Wistar rats, crude membranes
Put plainly: Inhibition of 3H-spiperone binding to dopamine D-2 receptors in rat corpus striatum in vitro. The settings on record: 3H-spiperone 0.5 nM, rat corpus striatum, 37° C., 10 min; read-out: Receptor Binding; IC50 DA D-2 3H-Spi. As for the experimental part:
INHIBITION OF ^3 H-SPIPERONE BINDING TO DOPAMINE D-2 RECEPTORS IN RAT CORPUS STRIATUM IN VITRO
By this method the inhibition by drugs of the binding of ^3 H-spiperone (0.5 nM) to dopamine D-2 receptors in membranes from rat corpus striatum is determined in vitro.
Male Wistar (Mol:Wistar) rats (125-250 g) are sacrificed and striatal tissue is dissected and weighed. The tissue is homogenized (Ultra Turrax, 10 sec.) in 10 ml of ice-cold 50 mM K-phosphate buffer pH 7.4 (at 25° C.). The homogenate is centrifuged twice at 20,000 g for 10 min. at 4° C. with rehomogenization of the pellet in 10 ml ice-cold buffer. The final pellet is homogenized in 1300 vol (w/v) ice-cold buffer.
Incubation tubes kept on ice in triplicate receive 100 μl of drug solution in water (or water for total binding) and 4000 μl of tissue suspension (final tissue content corresponds to 3.08 mg original tissue). The binding experimental is initiated by addition of 100 μl of ^3 H-spiperone (final concentration 0.5 nM) and by placing the tubes in a 37° C. water bath. After incubation for 10 min. the samples are filtered under vacuum (0-50 mBar) through Whatman GF/F filters (25 mm). The tubes are rinsed with 5 ml ice-cold buffer which are then poured on the filters. Thereafter, the filters are washed with 2×5 ml of buffer. The filters are placed in counting vials and 4 ml of appropriate scintillation fluid (e.g. Picofluor ™15) are added. After shaking for 1 h and storage 2 hrs in the dark the content of radioactivity is determined by liquid scintillation counting. Specific binding is obtained by subtracting the nonspecific binding in the presence of 10 μM of 6,7-ADTN.
as §1
^3 H-Spiperone=[phenyl-4-^3 H]-spiperone from Amersham International plc. England, specific activity 15-25 Ci/mmol.

The next assay has as its target α1 adrenoceptors. As to the kind of experiment: Inhibition of 3H-prazosin binding to α1 adrenoceptors in rat brain in vitro. As to conditions: for IC50: 3H-Prazosin 0.25 nM, rat brain, 25° C., 20 min, read-out: Receptor Binding, IC50 α1 3H-Praz. As for the experimental part: INHIBITION OF ^3 H-PRAZOSIN BINDING TO α1 ADRENOCEPTORS IN RAT BRAIN IN VITRO
Method and results in Hyttel & Larsen, J. Neurochem, 44, 1615-1622, 1985; Skarsfeldt & Hyttel, Eur. J. Pharmacol. 125, 323-340, 1986.
Male Wistar (Mol:Wist) rats (125-200 g) are sacrificed and brain tissue is dissected and weighed. The tissue is homogenized (Ultra Turrax, 10 sec.) in 10 ml of ice-cold […] Tris buffer pH 7,7 (at 25° C.). The homogenate is centrifuged twice at 20,000 g for 10 min. at 4° C. with rehomogenization of the pellet in 10 ml ice-cold buffer. The final pellet is homogenized in 400 vol (w/v) ice-cold buffer.
Incubation tubes kept on ice in triplicate receive 100 μl of drug solution in water (or water for total binding) and 4000μl of tissue suspension (final tissue content corresponds to 10 mg original tissue). The binding experiment is initiated by addition of 100 μl of ^3 H-Prazosin (final concentration 0.25 nM) and by placing the tubes in a 25° C. water bath. After incubation for 20 min. the samples are filtered under vacuum (0-50 mBar) through Whatman GF/F filters (25 mm). The tubes are rinsed with 5 ml ice-cold buffer which then are poured on the filters. Thereafter, the filters are washed with 5 ml of buffer. The filters are placed in counting vials and 4 ml of appropriate scintillation fluid (e.g. Picofluor™15) are added. After shaking for 1 h and storage 2 hrs in the dark the content of radioactivity is determined by liquid scintillation counting. Specific binding is obtained by subtracting the nonspecific binding in the presence of 1 μM of Prazosin.
as §1
The measured cpm are plotted against drug concentration on semilogarithmic paper and the best fitting S-shaped curve is drawn. The IC50 value is determined as the concentration at which the binding is 50% of the total binding in control samples minus the nonspecific binding in the presence of 1 μM of Prazosin.
^3 H-Prazosin=[furoyl-5-^3 H]-Prazosin from New England Nuclear, specific activity approximately 20 Ci/mmol.

T1 sequence (P14842 whole entry): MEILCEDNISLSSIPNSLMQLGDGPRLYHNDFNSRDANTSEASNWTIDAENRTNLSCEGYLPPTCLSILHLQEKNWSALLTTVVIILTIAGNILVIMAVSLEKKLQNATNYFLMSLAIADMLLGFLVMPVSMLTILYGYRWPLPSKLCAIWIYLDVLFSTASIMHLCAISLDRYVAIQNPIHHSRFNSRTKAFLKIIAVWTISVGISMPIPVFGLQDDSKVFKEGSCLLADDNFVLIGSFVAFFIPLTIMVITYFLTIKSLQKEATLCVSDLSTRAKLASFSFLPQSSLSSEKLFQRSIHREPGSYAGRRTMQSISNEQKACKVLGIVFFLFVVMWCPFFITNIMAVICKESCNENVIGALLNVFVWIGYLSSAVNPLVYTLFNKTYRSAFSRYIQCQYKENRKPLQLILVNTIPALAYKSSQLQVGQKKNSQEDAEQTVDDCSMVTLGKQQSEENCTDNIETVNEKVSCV
T2 sequence (P61169 whole entry): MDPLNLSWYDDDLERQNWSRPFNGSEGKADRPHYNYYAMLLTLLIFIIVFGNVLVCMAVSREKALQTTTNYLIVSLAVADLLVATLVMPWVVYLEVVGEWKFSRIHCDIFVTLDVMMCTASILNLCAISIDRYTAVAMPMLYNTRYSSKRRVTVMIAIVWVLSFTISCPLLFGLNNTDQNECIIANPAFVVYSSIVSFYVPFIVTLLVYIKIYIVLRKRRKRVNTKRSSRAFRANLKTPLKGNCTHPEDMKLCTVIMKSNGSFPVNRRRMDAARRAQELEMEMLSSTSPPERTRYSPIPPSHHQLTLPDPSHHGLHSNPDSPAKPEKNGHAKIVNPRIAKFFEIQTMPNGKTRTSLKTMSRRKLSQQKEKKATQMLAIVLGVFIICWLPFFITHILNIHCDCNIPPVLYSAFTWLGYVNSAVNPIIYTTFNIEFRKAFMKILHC

For `OCCN1CCN([C@@H]2C[C@@H](c3ccc(F)cc3)c3cc(Cl)ccc32)CC1` (relative stereo) [Compound 3, Trans-4-[5-chloro-3-(4-fluorophenyl)-2,3-dihydro-1H-inden-1-yl)-1-piperazine-ethanol], the IC50 turned out to be 25 nM on 5-HT2 receptors, 2200 nM at dopamine D-2 receptors and 230 nM on α1 adrenoceptors.
With `O=C1NCCN1CCN1CCN([C@@H]2C[C@@H](c3ccc(F)cc3)c3ccccc32)CC1` [Irindalon, reference compound], on 5-HT2 receptors, the “affinity to 5-HT2 receptors (in words)” value was “high affinity to 5-HT2 receptors” and the IC50 is 3.4 nM. Besides, at dopamine D-2 receptors, the IC50 came out at 400 nM. Also, in the assay on α1 adrenoceptors, the “affinity to α1 adrenoceptors (in words)” value was “significant affinity to oh adrenoceptors” and the IC50 is 16 nM.
With `CC(C)N1CCN(CCN2CCN([C@@H]3C[C@@H](c4ccc(F)cc4)c4cc(C(F)(F)F)ccc43)CC2)C1=O` (relative stereo) [Compound 13, Trans-1-[2-[4-[3-(4-fluorophenyl)-5-(trifluoromethyl)-2,3-dihydro-1H-inden-1-yl]piperazin-1-yl]ethyl]-3-isopropyl-2-imidazolidinone], the results for the IC50 on 5-HT2 receptors, on dopamine D-2 receptors and at α1 adrenoceptors were 3.7 nM, 510 nM and 350 nM, respectively.
The matching figures for `CC(C)N1CCN(CCN2CCN([C@@H]3C[C@@H](c4cccc(F)c4)c4cc(Cl)ccc43)CC2)C1=O` (relative stereo) [Compound 28, Trans-1-[2-[4-[5-chloro-3-(3-fluorophenyl)-2,3-dihydro-1H-inden-1-yl]piperazin-1-yl]ethyl]-3-isopropyl-2-imidazolidinone]: 26 nM, 490 nM and 970 nM.
`Cc1ccc2c(c1)[C@H](N1CCN(CCN3CCNC3=O)CC1)C[C@H]2c1ccc(F)cc1` (relative stereo) [Compound 40, reference compound]: the results for the IC50 at 5-HT2 receptors, on dopamine D-2 receptors and at α1 adrenoceptors were 0.71 nM, 43 nM and 12 nM, respectively.
Turning to `O=C1NCCN1CCN1CCN([C@@H]2C[C@@H](c3ccc(F)cc3)c3ccc(C(F)(F)F)cc32)CC1` (relative stereo) [Compound 39, reference compound], the IC50 was 21 nM on dopamine D-2 receptors and 8.3 nM on α1 adrenoceptors.
Turning to `CC(C)N1CCN(CCN2CCN([C@@H]3C[C@@H](c4ccccc4)c4cc(Cl)ccc43)CC2)C1=O` (relative stereo) [Compound 20, Trans-1-[2-[4-[5-chloro-3-phenyl-2,3-dihydro-1H-inden-1-yl]piperazin-1-yl]ethyl]-3-isopropyl-2-imidazolidinone], the IC50 is 9.9 nM at 5-HT2 receptors, 750 nM at dopamine D-2 receptors and 510 nM at α1 adrenoceptors.
Consider `O=C1NCCCN1CCN1CCN([C@@H]2C[C@@H](c3ccc(F)cc3)c3cc(F)ccc32)CC1` (single isomer, unassigned) [(-)-33, (-)-Trans-1-[2-[4-[5-fluoro-3-(4-fluorophenyl)-2,3-dihydro-1H-inden-1-yl]piperazin-1-yl]ethyl]-tetrahydro-2(1H)-pyrimidinone], for which the IC50 on 5-HT2 receptors was 57 nM; at dopamine D-2 receptors it was 4600 nM.
Regarding `CCN1CCN(CCN2CCN([C@@H]3C[C@@H](c4ccc(F)cc4)c4cc(Cl)ccc43)CC2)C1=O` (relative stereo) [Compound 19, Trans-1-[2-[4-[5-chloro-3-(4-fluorophenyl)-2,3-dihydro-1H-inden-1-yl]piperazin-1-yl]ethyl]-3-ethyl-2-imidazolidinone], the results for the IC50 on 5-HT2 receptors, at dopamine D-2 receptors and at α1 adrenoceptors were 2.6 nM, 260 nM and 240 nM, respectively.
For `CSc1ccc2c(c1)[C@H](c1ccc(F)cc1)C[C@H]2N1CCN(CCN2CCNC2=O)CC1` (relative stereo) [Compound 22, Trans-1-[2-[4-[3-(4-fluorophenyl)-5-(methylthio)-2,3-dihydro-1H-inden-1-yl]piperazin-1-yl]ethyl]-2-imidazolidinone] the same measures were 3.5 nM, 1100 nM and 240 nM.
For `Fc1ccc([C@@H]2C[C@@H](N3CCN(CCN4CCCC4=S)CC3)c3ccc(Cl)cc32)cc1` (relative stereo) [Compound 38] the same measures were 5.3 nM, 290 nM and 260 nM.
The matching figures for `CC(C)N1CCN(CCN2CCN([C@@H]3C[C@@H](c4ccccc4F)c4cc(Cl)ccc43)CC2)C1=O` (relative stereo) [Compound 21, Trans-1-[2-[4-[5-chloro-3-(2-fluorophenyl)-2,3-dihydro-1H-inden-1-yl]piperazin-1-yl]ethyl]-3-isopropyl-2-imidazolidinone]: 3.5 nM, 920 nM and 670 nM.
With `O=C1N(CCO)CCN1CCN1CCN([C@@H]2C[C@@H](c3ccc(F)cc3)c3cc(Cl)ccc32)CC1` (relative stereo) [Compound 37, Trans-1-[2-[4-[5-chloro-3-(4-fluorophenyl)-2,3-dihydro-1H-inden-1-yl]piperazin-1-yl]-ethyl]-3-(2-hydroxyethyl)-2-imidazolidinone], the IC50 on 5-HT2 receptors amounted to 6.1 nM; at dopamine D-2 receptors, 320 nM; on α1 adrenoceptors, 710 nM.
The matching figures for `O=C1NCCN1CCN1CCN([C@H]2C[C@H](c3ccc(F)cc3)c3cc(C(F)(F)F)ccc32)CC1` (single isomer, unassigned) [(+)-1]: 2 nM, 290 nM and 330 nM.
With `O=C1NCCN1CCN1CCN([C@@H]2C[C@@H](c3ccc(F)cc3)c3ccc(Cl)cc32)CC1` (relative stereo) [Compound 41, reference compound], the IC50 amounted to 17 nM at dopamine D-2 receptors and 3.1 nM on α1 adrenoceptors.
Consider `Fc1ccc([C@H]2C[C@H](N3CCNCC3)c3ccc(Cl)cc32)cc1` (single isomer, unassigned) [(+)-10], for which the IC50 on 5-HT2 receptors amounted to 3300 nM; at dopamine D-2 receptors it was 28000 nM.
